Data from patent US6544727B1, “Methods and devices for the removal of psoralens from blood products” (Cerus Corporation, priority 1995, dated 2003).
Read-outs that look alike come from different tables or passages of the source.

Legend:
R17 bacteriophage = R17 bacteriophage inactivation assay, varying compound concentration; format: cell-based; details: for R17 inactivation efficiency compared with AMT or 8-MOP (in words): varying concentration, Tables 6-9, FIGS. 6-10
Description: An r-17 bacteriophage assay was used in this example to predict pathogen inactivation efficiency and to determine nucleic acid binding of the photoreactive binding compounds of the present invention. In the r-17 assay, the bacteriophage was placed in a solution with each compound tested and was then irradiated. The ability of the phage to subsequently infect bacteria and inhibit their growth was measured. The bacteriophage was selected for its relatively accessible nucleic acid such that the culture growth inhibition would accurately reflect nucleic acid damage by the test compounds. The bacteriophage assay for nucleic acid binding to test compounds offers a safe and inexpensive procedure to identify compounds likely to display efficient pathogen inactivation.
The R17 was grown up in Hfr 3000 bacteria, approximate titer 5×10^11. (R17 and Hfr 3000 were obtained from American Tissue Culture Collection (ATCC), Washington, D.C.) The R17 phage stock was added to a solution of 15% fetal bovine serum in Dulbecco's Modified Eagles Medium (DMEM) to a final phage concentration of 10^9/mL. An aliquot (0.5 mL) was transferred to a 1.5 mL snap-top polyethylene tube. An aliquot (0.004-0.040 mL) of the test compound stock solution prepared in water, ethanol or dimethylsulfoxide at 0.80-8.0 mM was added to the tube. Compounds were tested at concentrations between 4 μM and 320 μM. […] The tubes were placed in a light device as described in EXAMPLE 1 and irradiated for between 1 and 10 minutes. Sterile 13 mL dilution tubes were prepared; each test compound required one tube with 0.4 mL of Luria broth (LB) and five tubes containing 0.5 mL of LB broth. To make the dilutions, a 0.100 mL aliquot of the irradiated solution of phage and test compound was added to the first dilution tube of 0.4 mL of media then 0.020 mL of this solution was added to the second tube of 0.5 mL medium (1:25). The second solution was then diluted serially (1:25) into the remaining tubes. To each diluted sample was added 0.050 mL of Hfr 3000 bacteria cultured overnight and 3 mL of molten LB top agar and the mixed materials were poured onto LB broth plates. After the top agar hardened, the plates were incubated at 37° C. overnight. The plaque forming units were then counted the following morning and the titer of the phage remaining after phototreatment was calculated based on the dilution factors.
The following controls were run: the “phage only” in which phage was not treated with test compound and not irradiated (listed as “starting titer” in the tables below); the “UV only” in which the phage was irradiated in the absence of test compound; and the “dark” control in which the phage/test compound solution was not irradiated before it was diluted and plated.

HIV-1 = details: for HIV Log Kill: 1 minute irradiation
Description: As in the R17 assay, small aliquots of the compounds listed in TABLES 10 and 11, below, at the concentrations listed in the table, were added to stock HIV-1 to a total of 0.5 mL. The stock HIV (10^5−10^7 plaque forming units/mL) was in DMEM15% FBS. […] Controls included HIV-1 stock only, HIV-1 plus UVA only, and HIV-1 plus the highest concentration of each psoralen tested, with no UVA. Post irradiation, all samples were store frozen at −70° C. until assayed for infectivity by a microtiter plaque assay. Aliquots for measurement of residual HIV infectivity in the samples treated with a compound of the present invention were withdrawn and cultured.
Residual HIV infectivity was assayed using an MT-2 infectivity assay. […] The assay medium was 85% DMEM (with a high glucose concentration) containing 100 μg of streptomycin, 100 U of penicillin, 50 μg of gentamicin, and 1 μg of amphotericin B per mL, 15% FBS and 2 μg of Polybrene (Sigma Chemical Co., St. Louis, Mo.) per mL. Test and control samples from the inactivation procedure were diluted in 50% assay medium and 50% normal human pooled plasma The samples were serially diluted directly in 96-well plates (Corning Glass Works, Corning, N.Y.). The plates were mixed on an oscillatory shaker for 30 seconds and incubated at 37° C. in a 5% CO2 atmosphere for 1 to 18 hours. […] After an additional 1 hour of incubation at 37° C. in 5% CO2, 0.075 mL of assay medium containing 1.6% SeaPlaque agarose (FMC Bioproducts, Rockland, Me.) and prewarmed to 38.5° C. was added to each well. The plates were kept at 37° C. for a few minutes until several plates had accumulated and then centrifuged in plate carriers at 600×g for 20 minutes in a centrifuge precooled to 10° C. In the centrifuge, cell monolayers formed prior to gelling of the agarose layer. The plates were incubated for 5 days at 37° C. in 5% CO2 and stained by the addition of 0.05 mL of 50 μg/mL propidium iodide (Sigma Chemical Co.) in phosphate-buffered saline (pH 7.4) to each well. After 24 to 48 hours, the red fluorescence-stained microplaques were visualized by placing the plates on an 8,000 μW/cm^2304 nm UV light box (Fotodyne, Inc., New Berlin, Wis.). The plaques were counted at a magnification of x20 to x25 through a stereomicroscope.

[1] = tested on: Salmonella tester strain TA1538
Description: (§1) In this example the compounds of the present invention are tested for their dark mutagenicity using an Ames assay. The procedures used for the Salmonella mutagenicity test as described in detail by Maron and Ames were followed exactly. Maron, D. M. and B. N. Ames, Mutation Research 113: 173 ( 1983). A brief description for each procedure is given here. The tester strains TA97a, TA98, TA100, TA102, TA1537 and TA1538 were obtained from Dr. Ames. TA97a, TA98, TA1537 and TA1538 are frameshift tester strains. TA100 and TA102 are base-substitution tester strains. Upon receipt each strain was cultured under a variety of conditions to confirm the genotypes specific to the strains.
(§2) The first tests done with the strains were to determine the range of spontaneous reversion for each of the strains. With each mutagenicity experiment the spontaneous reversion of the tester strains to histidine independence was measured and expressed as the number of spontaneous revertants per plate. This served as the background controls.
(§3) For all experiments, the pre-incubation procedure was used. In this procedure one vial of each tester strain was thawed and 20 μL of this culture was added to 6 mL of Oxoid Nutrient Broth #2. This solution was allowed to shake for 10 hours at 37° C. In the pre-incubation procedure, 0.1 mL of this overnight culture was added to each of the required number of sterile test tubes. To half of the tubes 0.5 mL of a 10% S-9 solution containing Aroclor 1254 induced rat liver extract (Molecular Toxicology Inc., Annapolis, Md.), and MgCl2, KCl, glucose-6-phosphate, NADP, and sodium phosphate buffer (Sigma, St. Louis, Mo.) were added. To the other half of the tubes 0.5 mL of 0.2M sodium phospate buffer, pH 7.4, was used in place of the S-9 mixture (the—S9samples). Finally 0.1 mL of the test solution containing either 0, 0.1, 0.5, 1, 5, 10, 50, 100, 250, or 500 μg/mL of the test compound was added. The 0.7 mL mixture was vortexed and then pre-incubated while shaking for 20 minutes at 37° C. After shaking, 2 mL of molten top agar supplemented with histidine and biotin were added to the 0.7 mL mixture and immediately poured onto a minimal glucose agar plate (volume of base agar was 20 mL). The top agar was allowed 30 minutes to solidify and then the plates were inverted and incubated for 44 hours at 37° C. After incubation the number of revertant colonies on each plate were counted. […] (“n” represents the number of replicates performed for each data point.)

[2] = tested on: Salmonella tester strain TA100
Description: as §1, §2, §3

[3] = tested on: Salmonella tester strain TA102; experiment: Ames test, strain TA102; details: TA102 − S9; 100 μg/plate
Description: as §1, §2, §3

mouse reticulocytes = details: positive control, 30 mg/kg administered only once, on day three, blood on day 5; 30 mg/kg
Description: Male Balb/c mice were then injected with 0.1 ml of a compound solution via the tail vein. At least 3 mice were injected per dose level. Saline only was used as a negative control. For a positive control, cyclophosphamide (cycloPP) was administered at a dose of 30 mg/kg. In the experimental group, the injections were repeated once per day for four days. In the positive control group, the sample was administered only once, on day three. On day 5, several microliters of blood were withdrawn from each subject and smeared on a glass slide. Cells were fixed in absolute methanol and stored in a slide rack.
For analysis, cells were stained with acridine orange and visualized under a fluorescence microscope by counting: (i) the number of reticulocytes per 5000 erythrocytes; and (ii) the number of micronucleated reticulocytes per 1000 reticulocytes. Reticulocytes were distinguished by their red fluorescence due to the presence of RNA. Micronuclei were distinguished by their green fluorescence due to the presence of DNA. The percentage of reticulocytes (%PCE) was then calculated. A decrease in the frequency of […] in the percentage of reticulocytes, is an indication of bone marrow toxicity. The percentage of reticulocytes with micronuclei (%PCE with MN) was also calculated. An increase in %PCE with MN is a measure of clastogenicity.
After initial results were determined, the experiment was repeated using increased dose levels, until: (i) Micronucleus formation was seen; or (ii) Bone marrow toxicity was observed; or (iii) The lethal dose was reached; or (iv) A dose of 5 g/kg was administered.

[4] = tested on: Salmonella typhimurium tester strains; experiment: Ames Salmonella dark mutagenicity test, overall assessment; format: cell-based; details: two-fold or greater increase in revertants above background and dose dependence
Description: A brief description for each procedure is given here. […] TA97a, TA98, TA1537 and TA1538 are frameshift tester strains. TA100 and TA102 are base-substitution tester strains.
This served as the background controls.
For all experiments, the pre-incubation procedure was used.

[5] = tested on: Salmonella tester strain TA98; experiment: Ames test, strain TA98; details: TA98 − S9; 10 μg/plate
Description: as §1, §2
For all experiments, the pre-incubation procedure was used. In this procedure one vial of each tester strain was thawed and 20 μL of this culture was added to 6 mL of Oxoid Nutrient Broth #2. This solution was allowed to shake for 10 hours at 37° C. In the pre-incubation procedure, 0.1 mL of this overnight culture was added to each of the required number of sterile test tubes. To half of the tubes 0.5 mL of a 10% S-9 solution containing Aroclor 1254 induced rat liver extract (Molecular Toxicology Inc., Annapolis, Md.), and MgCl2, KCl, glucose-6-phosphate, NADP, and sodium phosphate buffer (Sigma, St. Louis, Mo.) were added. To the other half of the tubes 0.5 mL of 0.2M sodium phospate buffer, pH 7.4, was used in place of the S-9 mixture (the—S9samples). […] The 0.7 mL mixture was vortexed and then pre-incubated while shaking for 20 minutes at 37° C. After shaking, 2 mL of molten top agar supplemented with histidine and biotin were added to the 0.7 mL mixture and immediately poured onto a minimal glucose agar plate (volume of base agar was 20 mL). The top agar was allowed 30 minutes to solidify and then the plates were inverted and incubated for 44 hours at 37° C. After incubation the number of revertant colonies on each plate were counted. […] (“n” represents the number of replicates performed for each data point.)

[6] = tested on: Salmonella tester strain TA1537; experiment: Ames test, strain TA1537; details: TA1537 − S9; 10 μg/plate
Description: as §1, §2, §3

[7] = 16 μM, starting titer approximately 5 logs (Table 10)
[8] = 32 μM, starting titer approximately 5 logs (Table 10)
[9] = 64 μM, starting titer approximately 5 logs (Table 10)
[10] = 16 μM, starting titer approx. 7.1 logs, 1 minute irradiation = 1.2 J/cm^2 (Table 8)

## Cc1cc(=O)oc2c(C)c3oc(CNCCN)c(C)c3cc12 [Compound 16, 5′-(4-amino-2-aza)butyl-4,4′,8-trimethylpsoralen]
R17 bacteriophage
  R17 inactivation efficiency compared with AMT or 8-MOP (in words): significantly higher inactivation efficiency than does AMT

## Cc1oc2c(C)c3oc(=O)cc(C)c3cc2c1COCCOCCN [Compound 7, 4′-(7-amino-2,5-oxa)heptyl-4,5′,8-trimethylpsoralen]
HIV-1; [7]
  HIV Log Kill: 0.8 log
HIV-1; [8]
  HIV Log Kill: 2.1 log
HIV-1; [9]
  HIV Log Kill: 3.5 log
R17 bacteriophage; 16 μM, starting titer approx. 7.1 logs, 1 minute irradiation (Table 9)
  R17 Log Kill: >6 log
R17 bacteriophage; 32 μM, starting titer approx. 7.1 logs, 1 minute irradiation (Table 9)
  R17 Log Kill: >6 log
R17 bacteriophage; 64 μM, starting titer approx. 7.1 logs, 1 minute irradiation (Table 9)
  R17 Log Kill: >6 log

## [N-]=[N+]=[N-] [Sodium Azide, sodium azide, reference compound]
[1]; TA1538 − S9, 1.5 μg/plate
  revertant colonies per plate: 965
[2]; TA100 − S9, 1.5 μg/plate
  revertant colonies per plate: 965

## Cc1oc2c(C)c3oc(=O)cc(C)c3cc2c1COCCOCCNCCCCN [Compound 8, 4′-(12-amino-8-aza-2,5-dioxa)dodecyl-4,5′,8-trimethylpsoralen]
HIV-1; [7]
  HIV Log Kill: 1.1 log
HIV-1; [8]
  HIV Log Kill: 1.9 log
HIV-1; [9]
  HIV Log Kill: 3.7 log

## OO [hydrogen peroxide]
[3]
  revertant colonies per plate: 660

## Cc1oc2c(C)c3oc(=O)cc(C)c3cc2c1CNCCCN [Compound 5, 4′-(5-amino-2-aza)pentyl-4,5′,8-trimethylpsoralen]
HIV-1; [7]
  HIV Log Kill: 0.9 log
HIV-1; [8]
  HIV Log Kill: 1.3 log
HIV-1; [9]
  HIV Log Kill: >2.6 log
R17 bacteriophage; [10]
  R17 Log Kill: 5.6 log
R17 bacteriophage; 32 μM, starting titer approx. 7.1 logs, 1 minute irradiation = 1.2 J/cm^2 (Table 8)
  R17 Log Kill: >6.1 log
R17 bacteriophage; 64 μM, starting titer approx. 7.1 logs, 1 minute irradiation = 1.2 J/cm^2 (Table 8)
  R17 Log Kill: >6.1 log
R17 bacteriophage
  R17 inactivation efficiency compared with AMT or 8-MOP (in words): significantly higher inactivation efficiency than does AMT

## O=P1(N(CCCl)CCCl)NCCCO1 (stereo not drawn) [CylcoPP, cyclophosphamide, reference compound]
Mouse reticulocytes
  PCE + MN (%): 2.09 ± 0.17%
  PCE/RBC (%): 0.99 ± 0.33%

## Cc1oc2c(C)c3oc(=O)cc(C)c3cc2c1CCN [Compound 3, 4′-(2-aminoethyl)-4,5′,8-trimethylpsoralen]
HIV-1; [8]
  HIV Log Kill: 2.7 log
HIV-1; [9]
  HIV Log Kill: >3.8 log
HIV-1; cell-free HIV, 64 μM of compound or higher for compounds 2 and 3
  HIV inactivation compared with AMT (in words): significantly more active than AMT
[4]
  mutagenic response in the Ames assay (in words): no mutagenicity
R17 bacteriophage; 8 μM, starting titer approx. 7.1 logs, 1 minute irradiation = 1.2 J/cm^2 (Table 8)
  R17 Log Kill: 5.6 log
R17 bacteriophage; 8 μM, starting titer approx. 7.2 logs, 1 minute irradiation (Table 7)
  R17 Log Kill: >6.2 log
R17 bacteriophage; [10]
  R17 Log Kill: >6.1 log
R17 bacteriophage; 16 μM, starting titer approx. 7.2 logs, 1 minute irradiation (Table 7)
  R17 Log Kill: >6.2 log
R17 bacteriophage; 32 μM, starting titer approx. 7.2 logs, 1 minute irradiation (Table 7)
  R17 Log Kill: >6.2 log
R17 bacteriophage
  R17 inactivation efficiency compared with AMT or 8-MOP (in words): significantly higher inactivation efficiency than does AMT
[1]; TA1538 + S9, 5 μg/plate
  revertant colonies per plate: 1
[1]; TA1538 + S9, 10 μg/plate
  revertant colonies per plate: 9
[1]; TA1538 − S9, 5 μg/plate
  revertant colonies per plate: 0
[1]; TA1538 − S9, 10 μg/plate
  revertant colonies per plate: −6
[2]; TA100 + S9, 5 μg/plate
  revertant colonies per plate: −19
[2]; TA100 + S9, 10 μg/plate
  revertant colonies per plate: 8
[2]; TA100 − S9, 5 μg/plate
  revertant colonies per plate: 47
[2]; TA100 − S9, 10 μg/plate
  revertant colonies per plate: 47

## Nc1c2ccccc2nc2ccccc12 [9-Amino-acridine, reference compound]
[5]
  revertant colonies per plate: 284
[6]
  revertant colonies per plate: 284

## Cc1oc2c(C)c3oc(=O)cc(C)c3cc2c1CNCCCOCCCCOCCN [Compound 9, 4′-(13-amino-2-aza-6,11-dioxa)tridecyl-4,5′,8-trimethylpsoralen]
HIV-1; 16 μM, starting titer approximately 5.4 logs (Table 11)
  HIV Log Kill: 0.8 log
HIV-1; 32 μM, starting titer approximately 5.4 logs (Table 11)
  HIV Log Kill: 1.4 log
HIV-1; 64 μM, starting titer approximately 5.4 logs (Table 11)
  HIV Log Kill: 2.7 log
